According to ChEMBL document CHEMBL4325859, “Research advances on anticancer activities of matrine and its derivatives: An updated overview” (Eur J Med Chem, 2019):

Legend:
HT-29 [1] = assay: Antiproliferative activity against human HT-29 cells by MTT assay; format: functional, cell-based
PANC-1 = assay: Antiproliferative activity against human PANC1 cells by MTT assay; format: functional, cell-based
HepG2 = assay: Antiproliferative activity against human HepG2 cells by MTT assay; format: functional, cell-based
A-375 = assay: Growth inhibition of human A375 cells by MTT assay; format: functional, cell-based
HeLa = assay: Growth inhibition of human HeLa cells by MTT assay; format: functional, cell-based
A-431 = assay: Growth inhibition of human A431 cells at 120 umol/L by MTT assay relative to control; format: functional; conditions: read-out: GI
A549 = assay: Growth inhibition of human A549 cells at 330 umol/L by MTT assay relative to control; format: functional; conditions: read-out: GI
SW480 [2] = assay: Growth inhibition of human SW480 cells at 330 umol/L by MTT assay relative to control; format: functional; conditions: read-out: GI
SW480 [3] = assay: Antitumor activity against human SW480 cells xenografted in Balb/c mouse assessed as tumor growth inhibition at 30 mg/kg, ip administered 2 times per week relative to control; format: functional; conditions: read-out: TGI
HT-29 [4] = assay: Growth inhibition of human HT-29 cells at 1.25 ug/ml by MTT assay relative to control; format: functional; conditions: read-out: GI
HT-29 [5] = assay: Growth inhibition of human HT-29 cells at 10 ug/ml by MTT assay relative to control; format: functional; conditions: read-out: GI
HT-29 [6] = assay: Growth inhibition of human HT-29 cells at 2.5 ug/ml by MTT assay relative to control; format: functional; conditions: read-out: GI
HT-29 [7] = assay: Growth inhibition of human HT-29 cells at 5 ug/ml by MTT assay relative to control; format: functional; conditions: read-out: GI

Compound | IC50 (HT-29 [1]) [µM] | IC50 (PANC-1) [µM] | IC50 (HepG2) [µM] | other results
COc1ccc(/C=C2\CC[C@@H]3[C@H]4CCCN5CCC[C@@H](CN3C2=O)[C@@H]45)cc1 | 27.8 | 27.8 | – | –
COc1cc(/C=C2\CC[C@@H]3[C@H]4CCCN5CCC[C@@H](CN3C2=O)[C@@H]45)cc(OC)c1OC | 9.05 | 9.05 | – | –
O=C(CCC[C@@H]1[C@H]2CCCN3CCC[C@@H](CN1Cc1ccccc1)[C@@H]23)OCCc1no[n+]([O-])c1S(=O)(=O)c1ccccc1 | – | – | 11.4 | –
CCCCOC(=O)CCC[C@@H]1[C@H]2CCCN3CCC[C@@H](CN1Cc1ccccc1)[C@@H]23 | – | – | – | IC50 (A-375): 149 µM; IC50 (HeLa): 304 µM
O=C(CCC[C@@H]1[C@H]2CCCN3CCC[C@@H](CN1Cc1ccccc1)[C@@H]23)OCCCc1no[n+]([O-])c1S(=O)(=O)c1ccccc1 | – | – | 11.5 | –
COc1ccc(/C=C2\CC[C@@H]3[C@H]4CCCN5CCC[C@@H](CN3C2=O)[C@@H]45)c(OC)c1OC | 13.2 | 13.2 | – | –
O=C1C[C@@H](SC(=S)N2CCCCC2)C[C@@H]2[C@H]3CCCN4CCC[C@@H](CN12)[C@@H]34 | – | – | – | inhibition of growth at 120 µM (A-431): > 94%; inhibition of growth at 330 µM (A549): > 95%; inhibition of growth at 330 µM (SW480 [2]): > 65%
COc1ccc(/C=C2\CC[C@@H]3[C@H]4CCCN5CCC[C@@H](CN3C2=O)[C@@H]45)cc1OC | 18 | 18 | – | –
O=C(CCC[C@@H]1[C@H]2CCCN3CCC[C@@H](CN1Cc1ccccc1)[C@@H]23)NCCc1no[n+]([O-])c1S(=O)(=O)c1ccccc1 | – | – | 8.02 | –
O=C(CCC[C@@H]1[C@H]2CCCN3CCC[C@@H](CN1Cc1ccccc1)[C@@H]23)OCCOCCc1no[n+]([O-])c1S(=O)(=O)c1ccccc1 | – | – | 14.2 | –
O=c1[nH]cc(F)c(=O)[nH]1 [FLUOROURACIL] | – | – | – | inhibition in vivo at 30 mg/kg (SW480 [3]): 63.1%
CCc1c2c(nc3ccc(OC(=O)N4CCC(N5CCCCC5)CC4)cc13)-c1cc3c(c(=O)n1C2)COC(=O)[C@]3(O)CC [IRINOTECAN] | – | – | – | inhibition of growth at 1.25 µg/mL (HT-29 [4]): 22.9%; inhibition of growth at 10 µg/mL (HT-29 [5]): 59.3%; inhibition of growth at 2.5 µg/mL (HT-29 [6]): 37.4%; inhibition of growth at 5 µg/mL (HT-29 [7]): 54.7%
